Reference: ChEMBL document CHEMBL1770076, “(+)-Arisugacin A--computational evidence of a dual binding site covalent inhibitor of acetylcholinesterase” (Bioorg Med Chem Lett, 2011)

How the values were obtained:
Cholinesterase = Cholinesterase (Homo sapiens, UniProt P06276)
Acetylcholinesterase = Acetylcholinesterase (Homo sapiens, UniProt P22303)
Acetylcholinesterase, sequence (P22303 whole entry): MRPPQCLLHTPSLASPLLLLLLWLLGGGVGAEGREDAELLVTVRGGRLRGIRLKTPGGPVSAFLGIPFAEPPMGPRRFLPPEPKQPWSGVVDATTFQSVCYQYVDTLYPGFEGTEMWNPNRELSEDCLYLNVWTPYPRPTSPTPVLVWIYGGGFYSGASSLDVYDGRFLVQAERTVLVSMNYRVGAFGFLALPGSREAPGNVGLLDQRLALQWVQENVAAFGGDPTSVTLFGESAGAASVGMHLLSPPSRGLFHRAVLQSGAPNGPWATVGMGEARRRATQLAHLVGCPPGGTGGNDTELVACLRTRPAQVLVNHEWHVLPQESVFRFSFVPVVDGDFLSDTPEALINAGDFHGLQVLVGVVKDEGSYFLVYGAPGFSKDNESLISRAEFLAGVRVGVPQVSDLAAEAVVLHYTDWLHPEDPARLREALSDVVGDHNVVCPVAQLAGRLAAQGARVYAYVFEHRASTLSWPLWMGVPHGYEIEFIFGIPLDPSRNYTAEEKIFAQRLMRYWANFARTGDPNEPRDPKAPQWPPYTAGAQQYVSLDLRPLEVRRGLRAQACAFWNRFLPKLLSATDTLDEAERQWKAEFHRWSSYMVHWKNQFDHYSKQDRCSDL
Description: Inhibition of AChE-induced amyloid beta aggregation

Cholinesterase, sequence (P06276 whole entry): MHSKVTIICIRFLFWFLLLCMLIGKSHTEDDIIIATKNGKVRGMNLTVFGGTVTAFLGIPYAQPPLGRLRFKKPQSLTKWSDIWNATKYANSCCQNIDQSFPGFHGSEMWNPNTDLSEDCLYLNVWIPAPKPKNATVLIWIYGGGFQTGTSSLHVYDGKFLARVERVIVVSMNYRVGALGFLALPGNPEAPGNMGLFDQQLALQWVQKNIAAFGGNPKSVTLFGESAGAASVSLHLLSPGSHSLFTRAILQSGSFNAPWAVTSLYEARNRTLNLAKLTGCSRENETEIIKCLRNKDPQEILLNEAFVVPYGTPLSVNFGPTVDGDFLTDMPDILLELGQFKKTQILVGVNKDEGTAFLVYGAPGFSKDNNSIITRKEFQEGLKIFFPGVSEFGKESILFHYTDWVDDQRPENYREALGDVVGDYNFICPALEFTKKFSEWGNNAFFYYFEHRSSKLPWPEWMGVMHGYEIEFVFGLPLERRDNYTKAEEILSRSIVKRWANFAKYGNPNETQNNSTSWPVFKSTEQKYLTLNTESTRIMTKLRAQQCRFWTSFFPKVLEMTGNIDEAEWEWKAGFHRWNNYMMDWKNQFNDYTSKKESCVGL

Row | Compound | IC50 (Cholinesterase) | IC50 (Acetylcholinesterase)
1 | COc1ccc(-c2cc3c(c(=O)o2)C[C@]2(O)[C@@]4(C)C(=O)C=CC(C)(C)[C@]4(O)CC[C@@]2(C)O3)cc1OC | 18000 nM | –
2 | C/C=C1\[C@H]2C=C(C)C[C@]1(N)c1ccc(=O)[nH]c1C2 [HUPERZINE A] | 100 nM | –
3 | COc1cc(-c2cc3c(c(=O)o2)C[C@]2(O)[C@@]4(C)C(=O)C=CC(C)(C)[C@]4(O)CC[C@@]2(C)O3)cc(OC)c1OC [TERRITREM B] | – | 6 nM
